Measured values: patent publication US11285161B2, “Method and composition for treating mental disorder and pain associated with nerve damage” (City University of Hong Kong, priority 2019, dated 2022)

Legend:
[1] = test system: spared nerve injury (SNI) mice; assay: Tail suspension test in spared nerve injury (SNI) mice; assay type: in vivo, mouse; conditions: 30 ng/kg Day 7-Day 30, tested Day 40 (10 days after discontinuation), vs SNI-saline and Sham-saline, FIG. 1A
Description: (§1) The antidepressant and analgesic activities of the compound of formula (IIb) (referred to as YM022) and the compound of formula (IIIb) (referred to as YF476) were investigated in a mouse model of spared nerve injury (SNI). The SNI model is a partial denervation model in which the injured nerves produce consistent pain hypersensitivity in the territory of the spared sural nerve, wherein the spared nerve injury can provoke depressive-like behaviors. In the experiment, depressive-like behaviors were assessed by a tail suspension test and monitoring body weight. Responses to pain were tested by measuring the sensitivity to mechanical stimulation by von Frey filaments.
(§2) For the SNI surgery, the mice were anesthetized by intraperitoneal injection of ketamine (100 mg/kg) and xylazine (15 mg/kg). […]
(§3) After SNI surgery (Day 0), the mice were treated with the compound of formula (IIb) (referred to as YM022) and the compound of formula IIIb (referred to as YF476), both at 30 ng/kg, for 24 days (Day 7-Day 30). The bodyweight of the mice were measured (FIG. 1B) and the tail suspension test (FIG. 1A) was carried out on Day 40 to assess the depressive status. […] A blinded observer monitored the test for 6 min and recorded the immobility time.

[2] = test system: spared nerve injury (SNI) mice; assay: Body weight of SNI mice; assay type: in vivo, mouse; conditions: 30 ng/kg Day 7-Day 30, Day 40, vs SNI-saline, FIG. 1B
Description: as §1, §2, §3

[3] = test system: spared nerve injury (SNI) mice; assay: Von Frey filament test in SNI mice; assay type: in vivo, mouse; conditions: Day 8 (after drug injection), FIG. 2
Description: as §1
For the SNI surgery, the mice were anesthetized by intraperitoneal injection of ketamine (100 mg/kg) and xylazine (15 mg/kg). The skin on the lateral surface of the left thigh was cleaned and incised, and then sterile scissors were used to expose three branches of the sciatic nerves: namely sural, common peroneal, and tibial nerves. […]
The Von Frey filament test was used 1 day before the surgery (Day-1) or on Day 1, Day 7 (after drug injection), Day 8 (after drug injection) to estimate the sensitivity of the mice to the mechanical stimulation. […] Response in three out of five stimuli was regarded as a positive reaction and the threshold level was recorded (FIG. 2).

mice [4] = assay: Acute tail suspension test; assay type: in vivo, mouse; conditions: 3 μg/kg or 30 μg/kg intraperitoneally 30 minutes before test, vs saline, FIG. 3A
Description: After SNI surgery (Day 0), the mice were treated with the compound of formula (IIb) (referred to as YM022) and the compound of formula IIIb (referred to as YF476), both at 30 ng/kg, for 24 days (Day 7-Day 30). The bodyweight of the mice were measured (FIG. 1B) and the tail suspension test (FIG. 1A) was carried out on Day 40 to assess the depressive status. In the tail suspension test, each mouse was suspended by its tail and secured by adhesive tape to the suspension bar. A blinded observer monitored the test for 6 min and recorded the immobility time.
In another acute tail suspension test, mice were injected intraperitoneally with YM022 (3 μg/kg or 30 μg/kg), YF476 (3 μg/kg or 30 μg/kg) or saline 30 minutes before the test. The tail suspension test was then performed as described above.

mice [5] = assay: Acute forced swim test; assay type: in vivo, mouse; conditions: 30 μg/kg intraperitoneally 30 minutes before test, 5-minute test, vs saline, FIG. 3B
Description: In the forced swim test, mice were forced to swim in a narrow cylinder from which they cannot escape. A Plexiglas cylinder (13 cm diameter and 24 cm high) containing water (22° C.±2° C.) to a depth of 10 cm was used. The mice were injected intraperitoneally with YM022 (30 μg/kg), YF476 (30 μg/kg) or saline 30 minutes before the test. After placing the animals in the cylinders, the duration of immobility during the 5-minute test were measured.

CCK2 receptor [6] = molecular target: T1, CCK2 receptor (Homo sapiens, UniProt P32239)
T1 sequence (P32239 1-447): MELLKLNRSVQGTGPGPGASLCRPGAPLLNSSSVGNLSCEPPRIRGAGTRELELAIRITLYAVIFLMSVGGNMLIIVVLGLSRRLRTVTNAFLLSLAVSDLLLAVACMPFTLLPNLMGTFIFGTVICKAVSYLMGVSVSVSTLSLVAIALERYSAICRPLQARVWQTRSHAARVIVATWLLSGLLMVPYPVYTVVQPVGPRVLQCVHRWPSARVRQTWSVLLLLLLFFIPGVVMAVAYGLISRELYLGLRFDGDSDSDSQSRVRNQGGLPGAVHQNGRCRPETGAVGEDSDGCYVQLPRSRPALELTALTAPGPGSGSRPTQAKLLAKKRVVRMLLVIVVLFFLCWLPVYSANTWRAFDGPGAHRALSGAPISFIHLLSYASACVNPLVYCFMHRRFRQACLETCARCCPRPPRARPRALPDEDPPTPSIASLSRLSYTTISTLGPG

CCK1 receptor = molecular target: T2, CCK1 receptor (Homo sapiens, UniProt P32238); conditions: read-out: IC50 to the CCK1 receptor; cited from earlier work
T2 sequence (P32238 1-428): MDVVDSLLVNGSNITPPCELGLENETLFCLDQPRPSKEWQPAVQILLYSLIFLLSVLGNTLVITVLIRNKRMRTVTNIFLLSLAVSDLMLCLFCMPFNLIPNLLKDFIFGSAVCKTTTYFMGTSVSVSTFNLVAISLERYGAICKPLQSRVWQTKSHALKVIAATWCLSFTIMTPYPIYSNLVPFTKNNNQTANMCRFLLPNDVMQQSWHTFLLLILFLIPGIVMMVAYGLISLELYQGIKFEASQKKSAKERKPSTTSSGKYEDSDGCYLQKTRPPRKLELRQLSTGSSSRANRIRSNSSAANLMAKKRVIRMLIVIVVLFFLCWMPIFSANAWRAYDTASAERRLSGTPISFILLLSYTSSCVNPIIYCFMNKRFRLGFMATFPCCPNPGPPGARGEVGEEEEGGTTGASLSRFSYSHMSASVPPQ

CCK2 receptor [7] = molecular target: T1, CCK2 receptor; conditions: cited from earlier work

For `CNc1cccc(NC(=O)N[C@@H]2N=C(c3ccccn3)c3ccccc3N(CC(=O)C(C)(C)C)C2=O)c1` [YF476], the “immobile time in tail suspension test” value [1] was “reduced immobile time”, the body weight [2] was “increased body weight” and the “mechanical threshold in Von Frey filament test” value [3] was “higher mechanical threshold”. The “immobile time in acute tail suspension test” value (mice [4]) was “less immobile time”, the “immobile time in forced swim test” value (mice [5]) was “less immobile time” and the “selectivity CCK2 versus CCK1 receptor” value (CCK2 receptor [6]) was “selectively inhibit CCK2 receptors”. For the same compound, the IC50 (CCK1 receptor) was 500 nM and the IC50 (CCK2 receptor [7]) was 0.11 nM.
For `Cc1cccc(NC(=O)N[C@@H]2N=C(c3ccccc3)c3ccccc3N(CC(=O)c3ccccc3C)C2=O)c1` [YM022], the “immobile time in tail suspension test” value [1] was “reduced immobile time”, the body weight [2] was “increased body weight” and the “mechanical threshold in Von Frey filament test” value [3] was “higher mechanical threshold”. For the same compound, the “immobile time in acute tail suspension test” value (mice [4]) was “less immobile time”, the “immobile time in forced swim test” value (mice [5]) was “less immobile time” and the “selectivity CCK2 versus CCK1 receptor” value (CCK2 receptor [6]) was “selectively inhibit CCK2 receptors”. For the same compound, the IC50 (CCK1 receptor) was 63 nM and the IC50 (CCK2 receptor [7]) was 0.07 nM.
